One experiment concerns ssDNA PolyT40. In words: EMSA with ssDNA PolyT40. The format is binding.
Another experiment deals with ssDNA PolyT200. Description: EMSA with ssDNA PolyT200. It is filed as binding. The procedure: The peptide-molecule conjugates of Examples 16, 17 and 18 (Glc2-AA-U2, Glc2-AA-U4, Glc2-AA-U6) were dispersed in distilled water. […] After preparing the mixtures of the peptide-molecule conjugates of Examples 16, 17 and 18 (Glc2-AA-U2, Glc2-AA-U4, Glc2-AA-U6) and the ssDNA PolyT200 (5 μL) at the nucleobase ratios described above, they were analyzed by EMSA.
The aqueous solution of the peptide-molecule conjugate of Example 19 (Glc2-AA-U8) was sonicated for 5 minutes or heated at 90° C. for 5 minutes, respectively. The heated peptide-molecule conjugate was indicated by ‘heat’.
The mixtures prepared by mixing the peptide-molecule conjugate of Example 19 (Glc2-AA-U8) aqueous solution (sonicated or heated) and ssDNA PolyT200 (5 μL) at nucleobase ratios of 20, 30 or 40 were analyzed by EMSA.
In general terms: In EMSA bound probe runs differently from free probe, usually more slowly.

The next experiment deals with EGFP mRNA. In words: EMSA of nanostructure formation with EGFP mRNA. The format is binding. As to the method: When a nanostructure was formed through self-assembly by reacting a peptide-molecule conjugate (SAB) with a nucleic acid material (dsDNA or mRNA), agarose gel EMSA was conducted to measure their interactions, binding ratio, stability, etc.
First, the nucleic acid material of a fixed concentration (100 fmol mRNA) was reacted with the peptide-molecule conjugate (SAB) of various concentrations. Immediately before mixing with the nucleic acid material, the peptide-molecule conjugate (SAB) was sonicated for 5 minutes to prevent self-aggregation. The sonicated peptide-molecule conjugate (SAB, 5 μL) was added to the nucleic acid material ([…]) and a nanostructure was prepared by adding distilled water. The sample was prepared by snap cooling. Specifically, after heating at 70° C. for 10 minutes and snap-cooling on ice, the prepared sample was stored at room temperature. The stored sample was mixed with 2 μL of 60% glycerol. Electrophoresis was performed at 100 V for 60 minutes on 0.8% agarose gel using 1×TBE. The band was observed after staining with SYBR™ Gold nucleic acid gel stain (Invitrogen, Waltham, USA).
After sonicating the peptide-molecule conjugate (SAB-gn, n=1 to 6) aqueous solution for 5 minutes, it was immediately mixed with an EGFP mRNA (200 μL) solution. […] An […] nanostructure was prepared as follows by mixing the peptide-molecule conjugate (SAB-gn, n=1 to 6) with the EGFP mRNA. […] The EGFP mRNA and the peptide-molecule conjugate (SAB-gn, n=1 to 6) were mixed at a charge ratio (+/−) of 0, 0.008, 0.016, 0.031, 0.063, 0.125, 0.25, 0.5, 1, 2, 4, 8, 16, 32 or 50.
After incubating the mixture solution overnight and centrifuging at 16,100 g for 30 minutes, the mixture was resuspended in deionized water. After washing twice, the resulting nanostructure was analyzed by EMSA.
After incubating the mixture solution overnight and centrifuging at 16,100 g for 30 minutes, the mixture was resuspended in deionized water.
After heating the mixed solution for 10 minutes at 70° C., it was immediately snap-cooled on ice. RiboRuler Low Range RNA Ladder and RiboRuler High Range RNA Ladder (Thermo Scientific, Waltham, USA) were used on the two lanes on the left side of agarose gel in order to identify the relative locations of the EGFP mRNA bands. The bands of the RiboRuler Low Range RNA Ladder correspond to 1000, 800, 600, 400, 300, 200 and 100 bases, from top to bottom, and the bands of the RiboRuler High Range RNA Ladder correspond to 6000, 4000, 3000, 2000, 1500, 1000, 500 and 200 bases, from top to bottom. Then, the mixtures with charge ratios (+/−) of 0, 0.031, 0.063, 0.125, 0.25, 0.5, 1, 2, 4, 8 and 16 were loaded in sequence.
After heating the mixed solution for 10 minutes at 70° C., it was immediately snap-cooled on ice. RiboRuler High Range RNA Ladder (Thermo Scientific, Waltham, USA) was used on the left side of agarose gel in order to identify the relative locations of the EGFP mRNA bands. The bands of the RiboRuler High Range RNA Ladder correspond to 6000, 4000, 3000, 2000, 1500, 1000, 500 and 200 bases, from top to bottom. Then, the samples were loaded with charge ratios (+/−) of 00, 0.063, 0.125, 0.25, 0.5, 1, 2, 4, 8, 16 and 32 in sequence.

Setting [1] is: different nucleobase ratios (20-100).
Where [2] appears, read: 20 nM EGFP mRNA, 70° C. 10 minutes, snap-cooled.

Where two headings read alike, the source gives them in different places. Where only a bound is given, the exact number is not on record here.

Description for ssDNA PolyT100: The concentration of the ssDNA was fixed and the concentration of the peptide-molecule conjugate aqueous solution was varied based on the nucleobase ratio.
After incubating the mixture of the peptide-molecule conjugate and ssDNA overnight, it was analyzed by EMSA.

On to “Ac-(PEG8)-AELAALEAELAALE(Ahx)2-E (adenine)E (adenine)-(Ahx)2-KLAALKAKLAALKAG-(PEG8) [PEG82-AA-U0]”, for which the “electrophoretic mobility (EMSA)” value in the experiment on ssDNA PolyT40 (nucleobase ratio 1280:1, compared with Example 12) was “delayed relatively more”.
For “Ac-(PEG8)-AELAALEAELAALE-(Ahx)2-E (adenine)-(Ahx)2-KLAALKAKLAALKAG-(PEG8) [PEG82-A-U0]”, in the experiment on ssDNA PolyT40 (nucleobase ratio 640), the “electrophoretic mobility (EMSA)” value was “delayed slightly”.
With “Ac-R-GS-UELUALEUELAULE-(Ahx)2-E (adenine)E (adenine)-(Ahx)2-KLUALKUKLAULKUG-K (glucose) [R-AA-Glc-U8]”, in the experiment with ssDNA PolyT200 (nucleobase ratio 60), the “nanostructure formation (EMSA)” value is listed as “successfully form”.
For “Ac-R-GS-UELUALEUELAULE-(Ahx)2-E (thymine)E (thymine)-(Ahx)2-KLUALKUKLAULKUG-K (glucose) [R-TT-Glc-U8]”, the “nanostructure formation (EMSA)” value in the experiment on ssDNA PolyT200 (nucleobase ratio 60) is recorded as “successfully form”.
Take “Ac-R-GS-UELUALEUELAULE-(Ahx)2-E (thymine)E (thymine)-(Ahx)2-KLUALKUKLAULKUG-K(PEG8)2 [R-TT-PEG82-U8]”: the “nanostructure formation (EMSA)” value with ssDNA PolyT200 (setting [1]) is “successfully form”.
Regarding “Ac-R-GS-UELUALEUELAULE-(Ahx)2-E (thymine)E (thymine)-(Ahx)2-KLUALKUKLAULKUG-K(PEG8) [R-AA-PEG8-U8]”, the “nanostructure formation (EMSA)” value with ssDNA PolyT200 (setting [1]) was “successfully form”.
On to “Ac-S-GS-UELUALEUELAULE-(Ahx)2-E (thymine)E (thymine)-(Ahx)2-KLUALKUKLAULKUG-K(PEG8) [S-TT-PEG8-U8]”, for which, in the experiment with ssDNA PolyT200 (setting [1]), the “nanostructure formation (EMSA)” value was “successfully form”.
On to “Glucose-(PEG8)-AELAALEAELAALE-(Ahx)2-K-(Ahx)2-KLAALKAKLAALKAG-(PEG8)-K(^Nglucose)-NH2 [SAB-g2]”, for which, in the experiment with EGFP mRNA, the “+/− (optimum charge ratio of EGFP mRNA and conjugate showing completely delayed electrophoretic mobility)” value is greater than 30.
For the substance “Glucose-(PEG8)-AELAALEAELAALE-(Ahx)2-K-(Ahx)2-KLAALKAKLAALKAG-(PEG8)-NH2 [SAB-g1]”, the “+/− (optimum charge ratio of EGFP mRNA and conjugate showing completely delayed electrophoretic mobility)” value in the experiment with EGFP mRNA is 20.
Regarding “Glucose-GS-AELAALEAELAALE-(Ahx)2-E (adenine)-E (adenine)-(Ahx)2-KLAALKAKLAALKAG-GS [Glc1-AA-U0]”, the “electrophoretic mobility (EMSA)” value with ssDNA PolyT100 (nucleobase ratio 40:1, compared with Example 15) was “delayed relatively more”; in the experiment on ssDNA PolyT100 (nucleobase ratio 80:1) it was “delayed completely”.
As to “Glucose-GS-AELAALEAELAALE-(Ahx)2-E (thymine)-E (thymine)-(Ahx)2-KLAALKAKLAALKAG-GS [Glc1-TT-U0]”, the “electrophoretic mobility (EMSA)” value with ssDNA PolyT100 (nucleobase ratio 80:1) is listed as “no electrophoretic mobility was observed”.
For orientation: Hill coefficient means a measure of the steepness of the concentration-response curve. Turning to “Glucose-GS-AELAALEAELAALE-(Ahx)2-K-(Ahx)2-KLAALKAKLAALKAG-K(^Nglucose)-NH2 [SAB-g3]”, in the experiment with EGFP mRNA, the “+/− (optimum charge ratio of EGFP mRNA and conjugate showing completely delayed electrophoretic mobility)” value was found to be 0.25; the Hill coefficient is 4.6; the “half-saturation constant KSAB-g3” value turned out to be 0.152.
For “Glucose-GS-AELAALEUELAALE-(Ahx)2-E (adenine)E (adenine)-(Ahx)2-KLAALKUKLAALKAG-K (glucose) [Glc2-AA-U2]”, in the experiment on ssDNA PolyT200 (setting [1]), the “nanostructure formation (EMSA)” value was “formed successfully”.
For the substance “Glucose-GS-AELAALEUELAALE-(Ahx)2-K-(Ahx)2-KLAALKUKLAALKAG-K(^Nglucose)-NH2 [SAB-g4]”, the “+/− (optimum charge ratio of EGFP mRNA and conjugate showing completely delayed electrophoretic mobility)” value with EGFP mRNA amounted to 5.
“Glucose-GS-AELUALEAELAULE-(Ahx)2-E (adenine)E (adenine)-(Ahx)2-KLUALKAKLAULKAG-K (glucose) [Glc2-AA-U4]”: the “nanostructure formation (EMSA)” value in the experiment with ssDNA PolyT200 (setting [1]) is given as “formed successfully”.
As for “Glucose-GS-AELUALEAELAULE-(Ahx)2-K-(Ahx)2-KLUALKAKLAULKAG-K(^Nglucose)-NH2 [SAB-g5]”, the “+/− (optimum charge ratio of EGFP mRNA and conjugate showing completely delayed electrophoretic mobility)” value with EGFP mRNA came out at 10.
As for “Glucose-GS-AELUALEUELAULE-(Ahx)2-E (adenine)E (adenine)-(Ahx)2-KLUALKUKLAULKAG-K (glucose) [Glc2-AA-U6]”, the “nanostructure formation (EMSA)” value in the experiment with ssDNA PolyT200 (setting [1]) is reported as “formed successfully”.
Regarding “Glucose-GS-AELUALEUELAULE-(Ahx)2-K-(Ahx)2-KLUALKUKLAULKAG-K(^Nglucose)-NH2 [SAB-g6]”, the “+/− (optimum charge ratio of EGFP mRNA and conjugate showing completely delayed electrophoretic mobility)” value in the experiment with EGFP mRNA is listed as greater than 4.
Take “Glucose-GS-UELUALEUELAULE-(Ahx)2-E (adenine)E (adenine)-(Ahx)2-KLUALKUKLAULKUG-K (glucose) [Glc2-AA-U8]”: the “nanostructure formation with EGFP mRNA (EMSA)” value in the experiment with EGFP mRNA (four conjugates used together (AA 6%, CC 21%, GG 26%, TT 47%), nucleobase ratio 1:1-1:15) was “successfully forms the nanostructure”. Further, the “nanostructure formation (EMSA) after sonication or heating of conjugate” value in the experiment with ssDNA PolyT200 (nucleobase ratios 20, 30 or 40, sonicated 5 minutes or heated at 90° C. 5 minutes) is given as “successfully binding to ssDNA PolyT200”.
“Glucose-GS-UELUALEUELAULE-(Ahx)2-E (cytosine)E (cytosine)-(Ahx)2-KLUALKUKLAULKUG-K (glucose) [Glc2-CC-U8]”: in the experiment on EGFP mRNA, the “nanostructure formation with EGFP mRNA (EMSA)” value was “successfully forms the nanostructure”.
With “Glucose-GS-UELUALEUELAULE-(Ahx)2-E (guanine)E (guanine)-(Ahx)2-KLUALKUKLAULKUG-K (glucose) [Glc2-GG-U8]”, the “nanostructure formation with EGFP mRNA (EMSA)” value with EGFP mRNA was “successfully forms the nanostructure”.
For “Glucose-GS-UELUALEUELAULE-(Ahx)2-E (thymine)E (thymine)-(Ahx)2-KLUALKUKLAULKUG-K (glucose) [Glc2-TT-U8]”, in the experiment on EGFP mRNA, the “nanostructure formation with EGFP mRNA (EMSA)” value is “successfully forms the nanostructure”.
For “Glucose-SGSG-C-GG-AUAUAUAUAUA-GG-R-GG-AUAUAUAUAUA-GG-C (cyclic; disulfide) [SAB #31]”, the “EMSA bands of EGFP mRNA” value in the experiment on EGFP mRNA is listed as “bands of the EGFP mRNA weaken gradually with the increase of charge ratio”.
As for “Glucose-SGSG-C-GG-AUAUAUAUAUA-GG-R-GG-AUAUAUAUAUA-GG-C (linear) [#30]”, the “charge ratio (+/−) at which a complete nanostructure was formed” value (“charge ratio (+/−)” below) with EGFP mRNA was no less than 8.
As for “Glycolic acid-SGSG-C-GG-AUAUAUAUAUA-GG-R-GG-AUAUAUAUAUA-GG-C (cyclic; disulfide) [cyc-R(AU)A5-Ga]”, in the experiment with EGFP mRNA (setting [2]), the “charge ratio (+/−)” value was determined as 16.
Regarding “Glycolic acid-SGSG-C-GG-AUAUAUAUAUA-GG-R-GG-AUAUAUAUAUA-GG-C (linear) [lin-R(AU)A5-Ga]”, the “charge ratio (+/−)” value in the experiment with EGFP mRNA (setting [2]) is on record as no less than 1.0.

Source of the values: patent US20240116986A1, “FUSION PEPTIDES CONTAINING DIMERIC ALPHA-HELICES, PEPTIDE-MOLECULARCONJUGATES CONTAINING THE SAME AND NUCLEIC ACID DELIVERY COMPOSITIONSCONTAINING THE SAME” (Artprobio Co., Ltd., priority 2022, published 2024).
